Reference: patent US20170247409A1, “ABIETANE-TYPE DITERPENOIDS” (UNIVERSITY OF HELSINKI, priority 2014, published 2017)
pIC50: −log10 of the molar value. Values after ≈ are worked out from the molar mass of the structure shown. Read-outs that look alike come from different tables or passages of the source.

Legend:
[1] = test system: S. aureus ATCC 25923 biofilms; experiment: Anti-biofilm viability assay with redox dye, pre- and post-exposure, S. aureus ATCC 25923 biofilms; assay type: cell-based, Staphylococcus aureus; details: for pIC50 / IC50 / inhibition at 400 µM: S. aureus ATCC 25923; for IC50: value in parentheses; for inhibition at 400 µM: ATCC25923; for reduction of the viable biofilm cells: time-course on existing biofilms, within the first hour (FIG. 1)
single-cell bacteria = experiment: Antibacterial activity (MIC) against single-cell (planktonic) bacteria; assay type: cell-based; details: Staphylococcus aureus, in the absence of biofilms, strain not stated
Excerpt: We selected six of the active compounds in the post-exposure assays namely, compounds 20, 21, 22, 25, 31 and 32 for the follow-up studies. […] In this mode of the assay, the interaction of the compounds occurs initially with single-cell bacteria (that is, a planktonic solution) before biofilms are formed. Therefore, we tested additionally if the compounds could exert antibacterial activity against single-cell bacteria, in the absence of biofilms. Based solely on conventional MIC and MBC values, antibacterial activities against single-cell bacteria were also high for the derivatives. […] The antibacterial activity order 22>21>25>31>20>32 correlated very well with the measured activity in preventing biofilm formation.

S. aureus Newman = experiment: Anti-biofilm potency against S. aureus Newman biofilms; assay type: cell-based, Staphylococcus aureus; details: Staphylococcus aureus, S. aureus Newman; for IC50: value in parentheses
Excerpt: In fact, only 2-3 fold-higher concentrations of the compounds were needed to kill existing biofilms, in comparison to inhibiting bacterial colonization. […] Anti-biofilm potencies were all in the micromolar range and they were particularly significant for compound 22. […] The activity was also confirmed against S. aureus Newman strain. Potency values calculated for the S. aureus Newman (Table 3) were very similar to the values registered for S. aureus ATCC 25923.

E. coli XL1 blue = experiment: Anti-biofilm activity against E. coli XL1 blue biofilms; assay type: cell-based, Escherichia coli; details: tested at IC50 conc. measured against S. aureus ATCC 25923
Description: (§1) Four of the compounds were also tested against gram-negative E. coli biofilms as well as other Staphylococcal strains, at the corresponding IC50 values measured against S. aureus ATCC 25923 (Table 4). […] Nonetheless, all the compounds presented below were found active against S. epidermidis (ATCC 12228 and ATCC 35984) strains (Table 3).

[2] = test system: S. epidermidis ATCC 12228; experiment: Anti-biofilm activity against S. epidermidis ATCC 12228; assay type: cell-based, Staphylococcus epidermidis; details: tested at IC50 conc. measured against S. aureus ATCC 25923
Description: as §1

[3] = test system: S. epidermidis ATCC 35984; experiment: Anti-biofilm activity against S. epidermidis ATCC 35984; assay type: cell-based, Staphylococcus epidermidis; details: tested at IC50 conc. measured against S. aureus ATCC 25923
Description: as §1

[4] = test system: S. aureus ATCC 25923 biofilms; experiment: Viable plate counts and Log Reduction of S. aureus ATCC 25923 biofilms; assay type: cell-based, Staphylococcus aureus; details: 400 μM, viable plate counts
Description: The viability of S. aureus (ATCC 25923) biofilms left upon exposure to compounds 20, 21, 22 and 25 was determined using viable plate counts and calculating the Log Reduction (Log R) value. This procedure involves scrapping the biofilms off the substrate, disaggregating them by sonication and plating the resulting suspension in agar. The method is highly laborious but it is the gold standard for the quantification of anti-biofilm efficacy (Pitts et al. 2003). […] Of note, a log R value of 2 represents a reduction of 99% of the viable cells in the biofilms, and typically, a log R of 3 is considered a relevant indicator of the compound efficacy as an anti-biofilm agent.

[5] = test system: S. aureus ATCC 25923 biofilms; experiment: ATP release from biofilms, BacTiter-Glo bioluminescent assay; assay type: cell-based, Staphylococcus aureus; details: 100 μM; 1 h exposure (FIG. 2A)
Excerpt: (§2) A: quantification of ATP release from the S. aureus ATCC 25923 biofilms using the BacTiter-Glo bioluminescent assay. B: quantification of membrane depolarization in treated biofilms by the potential-sensitive DiABC(4)3 probe; this probe can only enter depolarized cells, where it experienced an enhanced fluorescence signal upon binding to intracellular proteins. For statistical comparisons between the treated and untreated samples, an unpaired t-test with Welch's correction was used, using GraphPad Prism (v 5.0 for Mac OS X).
(§3) ATP release from the biofilms after 1 h exposure to compounds 22 and 25 at 100 μM was quantified on the culture media, using the BacTiter-Glo bioluminescent assay. […] ATP release can be often associated to membrane depolarization events. Here, such events were followed by the increase in fluorescence emission of the DiBAC4(3) probe, as in Okuda et al. (2013).

[6] = test system: S. aureus ATCC 25923 biofilms; experiment: Membrane depolarization in biofilms, DiBAC4(3) probe; assay type: cell-based, Staphylococcus aureus; details: 1 h exposure to the biofilms (FIG. 2B)
Excerpt: as §2, §3

HL cells [7] = experiment: Biocompatibility index (LC50 in HL cells / concentration causing 3-log reduction of planktonic bacteria); assay type: cell-based, human; details: ratio LC50 (HL cells) / concentration causing 3-log reduction in planktonic bacterial burden
Description: Additionally, the biocompatibility index (BI) was calculated for compound 22, to assess the overall impact of its antimicrobial activity, using an adaptation of the equation described for antiseptics by Muller and Kramer, 2008. BI, as originally defined by these authors, is a dimensionless parameter resulting from the ratio of the in vitro cytotoxicity values (in this case, half-lethal concentrations, LC50) to the concentration of the compound causing a 3-log reduction in the viable counts of suspended bacteria. Compounds with BI<1 are deemed as less promising, due to their potential toxic effects. Thus BI is a very useful tool for the quick exclusion of undesired toxic scaffolds or weak hits in early stage of development of anti-biofilm molecules. For the determination of the BI, acute cytotoxicity of compound 22 was measured in the same cell line described earlier (HL cells), using the resazurin assay as in Karlsson et al, 2012. The ratio of the half lethal concentration (LC50) and the concentration causing 3-log reduction in the planktonic bacterial burden was calculated (both expressed in […]), as below:
The BI value of compound 22 was clearly higher than 1, which is indicative of an adequate combination of an effective anti-biofilm activity with a low cytotoxicity. It is thus expected that toxic effects can be minimized in the host organisms exposed to compound 22.

HL cells [8] = experiment: Tolerability of mammalian cells, resazurin viability assay; assay type: cell-based, human; details: 24 hours exposure, HL cells
Description: Viability values were measured in acute conditions (24 hours exposure) using the resazurin assay as in Karlsson et al, 2012 (Eur J Pharm Sci. 2012 Aug 30;47(1):190-205). […] The least tolerated molecule was 25, as only 23% (±5.9) of cells remained viable upon exposure to 100 μM. However, concentrations up to 30 μM caused no cytotoxicity (90.2% of viable cells, ±0.5).

[9] = Staphylococcus aureus, ATCC25923, 50% inhibition of biofilm viability, read-out: Potency, IC50 Prior-to-biofilm formation
[10] = Staphylococcus aureus, ATCC25923, 24 h, measured 24 hours after adding to existing biofilms, read-out: Potency, IC50 Post-biofilm formation
[11] = Staphylococcus aureus, post-exposure, read-out: % Inhibition 400 μM POST
[12] = Staphylococcus aureus, pre-exposure, read-out: % Inhibition 400 μM PRE
[13] = read-out: Potency, IC50 Post-biofilm formation
[14] = read-out: Potency, IC50 Prior-to-biofilm formation

| SMILES | pIC50 [1, 9] | IC50 [1, 9] [µg/mL] | IC50 [1, 10] [µg/mL] | inhibition at 400 µM [1, 11] [%] | inhibition at 400 µM [1, 12] [%] | reduction of the viable biofilm cells [1] [%] | MIC (single-cell bacteria) [µg/mL] | pIC50 (S. aureus Newman; [13]) | pIC50 (S. aureus Newman; [14]) | IC50 (S. aureus Newman; [13]) [µg/mL] | IC50 (S. aureus Newman; [14]) [µg/mL] | Inhibition percentage (±SD) Post-biofilm formation (E. coli XL1 blue) | Inhibition percentage (±SD) Prior-to-biofilm formation (E. coli XL1 blue) | Inhibition percentage (±SD) Post-biofilm formation [2] | Inhibition percentage (±SD) Prior-to-biofilm formation [2] | Inhibition percentage (±SD) Post-biofilm formation [3] | Inhibition percentage (±SD) Prior-to-biofilm formation [3] | Log Reduction (average ±SD) [4] | ATP release from the biofilms [5] | membrane depolarization [6] | further results |
| --- | --- | --- | --- | --- | --- | --- | --- | --- | --- | --- | --- | --- | --- | --- | --- | --- | --- | --- | --- | --- | --- |
| CC(C)c1ccc2c(c1)CC[C@H]1[C@](C)(C(=O)N[C@@H](CC3CCCCC3)C(=O)O)CCC[C@]21C [Compound 22, N-(Abiet-8,11,13-trien-18-oyl) Cyclohexyl-L-alanine] | 5.03 | 4.2 | 12.7 | 99.6 | 100 | ~50 | 6.8 (≈ 15 µM) | 4.32 | 5.10 | 21.9 | 3.6 | 14.2 (±13.1) % | 5.2 (±11.3) % | 4.4 (±5.8) % | 42.3 (±9.5) % | 1.9 (±5.7) % | 48.8 (±4.8) % | 2.3 (±0.1) | highly significant ATP leakage | caused membrane depolarization | biocompatibility index (BI) (HL cells [7]): higher than 1 |
| CC(C)c1ccc2c(c1)CC[C@H]1[C@](C)(C(=O)N[C@H](Cc3c[nH]c4ccccc34)C(=O)O)CCC[C@]21C [Compound 25, N-(Abiet-8,11,13-trien-18-oyl) D-tryptophan] | 4.48 | 16.2 | 41.9 | 102 | 102 | ~50 | 29.3 (≈ 60.2 µM) | 4.14 | 4.68 | 34.9 | 10.2 | 6.7 (±7.2) % | 8.7 (±5.6) % | 48.8 (±10.3) % | 70.3 (±5.6) % | 38.0 (±9.3) % | 66.9 (±0.9) % | 6.2 (±0.4) | highly significant ATP leakage | caused membrane depolarization | pIC50 [1, 10]: > 4.00; pIC50 ([1]; measured 24 hours after adding to existing biofilms, read-out: Potency, IC50 Post-biofilm formation): 4.06; viable cells (HL cells [8]; 100 μM): 23%; viable cells (HL cells [8]; concentrations up to 30 μM): 90.2% |
